Reference: ChEMBL document CHEMBL4373715, “Discovery and Biological Evaluations of Halogenated 2,4-Diphenyl Indeno[1,2-b]pyridinol Derivatives as Potent Topoisomerase IIα-Targeted Chemotherapeutic Agents for Breast Cancer” (J Med Chem, 2019)

Key:
[1] = test system: HCT-15; assay: Antiproliferative activity against human HCT15 cells measured after 72 hrs by EZ-Cytox assay; format: functional, cell-based; conditions: HCT-15, 72 h
[2] = test system: HeLa; assay: Antiproliferative activity against human HeLa cells measured after 72 hrs by EZ-Cytox assay; format: functional, cell-based
[3] = target: T1, DNA topoisomerase 1 (Homo sapiens) (UniProt P11387); assay: Inhibition of recombinant human topoisomerase 1-mediated relaxation of supercoiled pBR322 DNA at 100 uM measured after 30 mins by ethidium bromide staining based agarose gel electrophoresis relative to control
T1 sequence (whole entry): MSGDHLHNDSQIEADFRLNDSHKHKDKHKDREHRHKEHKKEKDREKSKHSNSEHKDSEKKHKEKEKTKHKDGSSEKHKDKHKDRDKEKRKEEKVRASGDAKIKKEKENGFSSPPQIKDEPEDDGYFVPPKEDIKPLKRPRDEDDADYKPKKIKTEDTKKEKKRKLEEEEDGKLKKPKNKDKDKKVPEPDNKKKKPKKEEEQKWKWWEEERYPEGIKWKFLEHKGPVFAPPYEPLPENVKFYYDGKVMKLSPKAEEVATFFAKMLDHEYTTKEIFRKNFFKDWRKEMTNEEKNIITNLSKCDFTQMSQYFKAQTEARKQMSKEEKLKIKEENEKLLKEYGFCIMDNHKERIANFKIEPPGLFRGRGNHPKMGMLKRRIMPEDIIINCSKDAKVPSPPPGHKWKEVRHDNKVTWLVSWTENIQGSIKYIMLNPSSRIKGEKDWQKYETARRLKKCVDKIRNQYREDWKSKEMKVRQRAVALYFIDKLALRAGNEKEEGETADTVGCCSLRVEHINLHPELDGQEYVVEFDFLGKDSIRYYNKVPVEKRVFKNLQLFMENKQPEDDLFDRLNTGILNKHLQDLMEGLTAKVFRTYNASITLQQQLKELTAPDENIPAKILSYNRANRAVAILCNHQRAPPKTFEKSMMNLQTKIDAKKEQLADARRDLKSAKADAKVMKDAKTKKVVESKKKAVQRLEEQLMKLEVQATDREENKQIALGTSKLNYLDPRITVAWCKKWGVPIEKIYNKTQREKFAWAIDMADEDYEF

[4] = test system: DU-145; assay: Antiproliferative activity against human DU145 cells measured after 72 hrs by EZ-Cytox assay; format: functional, cell-based; conditions: DU-145, 72 h
[5] = target: DNA topoisomerase 2-alpha (Homo sapiens) (UniProt P11388); assay: Inhibition of recombinant human topoisomerase 2alpha-mediated relaxation of supercoiled pBR322 DNA at 100 uM measured after 30 mins by ethidium bromide staining based agarose gel electrophoresis relative to control
[6] = target: DNA topoisomerase 2-alpha (Homo sapiens) (UniProt P11388); assay: Inhibition of recombinant human topoisomerase 2alpha-mediated relaxation of supercoiled pBR322 DNA at 20 uM measured after 30 mins by ethidium bromide staining based agarose gel electrophoresis relative to control
[7] = test system: T47D; assay: Antiproliferative activity against human T47D cells measured after 72 hrs by EZ-Cytox assay; format: functional, cell-based

Chain of DNA topoisomerase 2-alpha (Homo sapiens) (P11388 whole entry): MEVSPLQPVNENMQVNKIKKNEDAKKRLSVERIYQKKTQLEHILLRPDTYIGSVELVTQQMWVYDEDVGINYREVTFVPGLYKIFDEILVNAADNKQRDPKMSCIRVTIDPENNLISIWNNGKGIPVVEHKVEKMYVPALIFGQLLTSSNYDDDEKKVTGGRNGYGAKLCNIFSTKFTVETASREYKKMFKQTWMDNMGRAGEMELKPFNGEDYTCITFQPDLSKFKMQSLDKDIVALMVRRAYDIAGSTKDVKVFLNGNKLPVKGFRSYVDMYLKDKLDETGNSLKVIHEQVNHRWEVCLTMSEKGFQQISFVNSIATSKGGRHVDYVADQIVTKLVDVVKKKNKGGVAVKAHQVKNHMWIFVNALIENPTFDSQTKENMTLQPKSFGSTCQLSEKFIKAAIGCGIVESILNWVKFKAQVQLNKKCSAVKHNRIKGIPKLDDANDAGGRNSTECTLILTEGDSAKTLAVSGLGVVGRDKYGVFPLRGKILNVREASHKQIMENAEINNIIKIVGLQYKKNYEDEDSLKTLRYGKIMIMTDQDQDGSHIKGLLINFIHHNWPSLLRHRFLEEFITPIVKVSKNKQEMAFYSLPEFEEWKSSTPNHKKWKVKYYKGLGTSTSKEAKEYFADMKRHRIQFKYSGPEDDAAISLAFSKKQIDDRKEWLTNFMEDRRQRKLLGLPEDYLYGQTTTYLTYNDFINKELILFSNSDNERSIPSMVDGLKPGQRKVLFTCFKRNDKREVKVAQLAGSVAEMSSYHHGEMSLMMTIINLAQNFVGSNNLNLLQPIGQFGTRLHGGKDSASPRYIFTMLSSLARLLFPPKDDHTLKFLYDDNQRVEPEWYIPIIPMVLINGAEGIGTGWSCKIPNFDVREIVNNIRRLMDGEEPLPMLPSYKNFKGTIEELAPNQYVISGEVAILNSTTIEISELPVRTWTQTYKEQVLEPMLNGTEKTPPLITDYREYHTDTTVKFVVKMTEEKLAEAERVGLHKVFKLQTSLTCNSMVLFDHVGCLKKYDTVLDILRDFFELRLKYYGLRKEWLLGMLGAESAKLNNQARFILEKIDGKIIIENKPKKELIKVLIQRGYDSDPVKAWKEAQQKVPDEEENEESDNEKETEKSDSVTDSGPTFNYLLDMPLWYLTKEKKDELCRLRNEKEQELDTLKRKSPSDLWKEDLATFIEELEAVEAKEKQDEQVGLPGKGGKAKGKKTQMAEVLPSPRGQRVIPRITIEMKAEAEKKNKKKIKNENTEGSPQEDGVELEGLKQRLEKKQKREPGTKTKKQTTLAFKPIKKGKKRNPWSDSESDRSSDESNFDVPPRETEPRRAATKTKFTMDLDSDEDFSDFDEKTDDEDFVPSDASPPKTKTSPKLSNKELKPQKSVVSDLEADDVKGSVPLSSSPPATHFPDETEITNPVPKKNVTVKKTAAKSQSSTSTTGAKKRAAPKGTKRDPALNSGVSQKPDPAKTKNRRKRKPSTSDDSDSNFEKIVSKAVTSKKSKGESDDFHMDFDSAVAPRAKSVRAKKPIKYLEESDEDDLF

inhibition [3] | inhibition [5] | inhibition [6] | Compound | IC50 [1] | IC50 [2] | IC50 [4] | IC50 [7]
6.3% | 89.6% | 10.9% | Oc1cccc(-c2cc(-c3ccccc3Cl)nc3c2Cc2cccc(O)c2-3)c1 | 3820 nM | 5250 nM | 240 nM | 120 nM
13.1% | 80% | 3.2% | Oc1ccccc1-c1cc(-c2cccc(Cl)c2)nc2c1Cc1cccc(O)c1-2 | 1310 nM | 3620 nM | 220 nM | 960 nM
7.4% | 85.2% | 26.5% | Oc1cccc(-c2cc(-c3ccc(Cl)cc3)nc3c2Cc2cccc(O)c2-3)c1 | 3050 nM | 6740 nM | 360 nM | 3500 nM
0% | 86.3% | 4.4% | Oc1cccc(-c2cc(-c3ccc(Cl)cc3)c3c(n2)-c2cccc(O)c2C3)c1 | 2580 nM | 4630 nM | 3940 nM | 2110 nM
21.4% | 70.8% | 0% | Oc1ccc2c(c1)Cc1c(-c3ccc(Cl)cc3)cc(-c3ccccc3O)nc1-2 | > 50000 nM | > 50000 nM | > 50000 nM | > 50000 nM
9.3% | 95.7% | 8.5% | Oc1cccc(-c2cc(-c3ccc(Cl)cc3)c3c(n2)-c2c(O)cccc2C3)c1 | 14700 nM | 9010 nM | 4070 nM | 2220 nM
0% | 100% | 50.2% | Oc1ccc(-c2cc(-c3ccc(Cl)cc3)nc3c2Cc2cc(O)ccc2-3)cc1 | 770 nM | 1020 nM | 1910 nM | 1840 nM
0% | 100% | 31.9% | Oc1ccc(-c2cc(-c3cccc(Cl)c3)nc3c2Cc2cc(O)ccc2-3)cc1 | 750 nM | 1170 nM | 1200 nM | 1200 nM
1.1% | 67% | 3.9% | Oc1ccc(-c2cc(-c3cccc(F)c3)nc3c2Cc2cccc(O)c2-3)cc1 | > 50000 nM | 7200 nM | 5780 nM | 750 nM
14.2% | 95.3% | 10.8% | Oc1ccc(-c2cc(-c3ccc(Cl)cc3)c3c(n2)-c2cc(O)ccc2C3)cc1 | 12000 nM | 10000 nM | 1740 nM | 2670 nM
0% | 83.9% | 25.3% | Oc1ccccc1-c1cc(-c2ccc(Cl)cc2)nc2c1Cc1cccc(O)c1-2 | 1230 nM | 5310 nM | 550 nM | 2410 nM

Continued, molecule first:

Compound | inhibition [3] | inhibition [5] | inhibition [6] | IC50 [1] | IC50 [2] | IC50 [4] | IC50 [7]
Oc1cccc(-c2cc(-c3ccc(C(F)(F)F)cc3)nc3c2Cc2cc(O)ccc2-3)c1 | 2.8% | 100% | 14.9% | 6820 nM | 11400 nM | 1590 nM | 8900 nM
Oc1ccc2c(c1)-c1nc(-c3ccccc3)cc(-c3ccccc3)c1C2 | 2.6% | 79.9% | 5.5% | 3130 nM | 4380 nM | 3490 nM | 190 nM
Oc1ccc(-c2cc(-c3ccc(F)cc3)nc3c2Cc2ccc(O)cc2-3)cc1 | 0.9% | 47.6% | 1.4% | 2540 nM | 2250 nM | 2340 nM | 1140 nM
Oc1ccc(-c2cc(-c3cccc(Cl)c3)c3c(n2)-c2ccc(O)cc2C3)cc1 | 8.8% | 73.9% | 3.3% | 5690 nM | 5940 nM | 2250 nM | 1860 nM
Oc1cccc(-c2cc(-c3cccc(Cl)c3)nc3c2Cc2ccc(O)cc2-3)c1 | 1.5% | 90.5% | 14.3% | 840 nM | 5440 nM | 3280 nM | 1370 nM
Oc1ccc(-c2cc(-c3cccc(C(F)(F)F)c3)nc3c2Cc2ccc(O)cc2-3)cc1 | 8.5% | 87.1% | 11.1% | 2770 nM | 3060 nM | 2150 nM | 4690 nM
Oc1cccc(-c2cc(-c3ccccc3Cl)nc3c2Cc2ccc(O)cc2-3)c1 | 3.9% | 88.7% | 38.3% | 3040 nM | > 50000 nM | 570 nM | 550 nM
Oc1ccc(-c2cc(-c3ccc(F)cc3)nc3c2Cc2c(O)cccc2-3)cc1 | 14.7% | 50.8% | 3.6% | 2230 nM | 4880 nM | 1840 nM | 1370 nM
Oc1ccc2c(c1)-c1nc(-c3ccccc3Cl)cc(-c3ccccc3O)c1C2 | 0% | 76.8% | 5.8% | 4940 nM | 6710 nM | 770 nM | 2840 nM
Oc1ccc(-c2cc(-c3ccccc3)c3c(n2)-c2cc(O)ccc2C3)cc1 | 20.9% | 54.8% | 9.3% | 1430 nM | 2740 nM | 570 nM | 3430 nM
Oc1cccc(-c2cc(-c3cccc(Cl)c3)c3c(n2)-c2cc(O)ccc2C3)c1 | 11.6% | 76.3% | 3.5% | 6600 nM | 6240 nM | 3220 nM | 7200 nM
Oc1ccc2c(c1)Cc1c(-c3ccccc3O)cc(-c3ccccc3C(F)(F)F)nc1-2 | 1.6% | 90.2% | 3.7% | 1610 nM | 2920 nM | 2020 nM | 1140 nM
Oc1ccc2c(c1)-c1nc(-c3cccc(Cl)c3)cc(-c3ccccc3O)c1C2 | 22.9% | 87.9% | 10.8% | 1760 nM | 2770 nM | 320 nM | 1160 nM
Oc1cccc(-c2cc(-c3ccc(F)cc3)nc3c2Cc2ccc(O)cc2-3)c1 | 11.7% | 48.3% | 5.4% | 1460 nM | 3820 nM | 1060 nM | 680 nM
Oc1cccc(-c2cc(-c3cccc(C(F)(F)F)c3)nc3c2Cc2ccc(O)cc2-3)c1 | 5.2% | 90.7% | 10.5% | 8610 nM | 4700 nM | 1540 nM | 1330 nM
Oc1ccc2c(c1)Cc1c(-c3ccccc3O)cc(-c3cccc(C(F)(F)F)c3)nc1-2 | 0% | 85.4% | 4.1% | 3890 nM | 3100 nM | 1720 nM | 700 nM
Oc1ccc(-c2cc(-c3ccccc3Cl)nc3c2Cc2cc(O)ccc2-3)cc1 | 7.6% | 86.6% | 53.6% | 1850 nM | 700 nM | 430 nM | 1870 nM
Oc1ccccc1-c1cc(-c2ccccc2)nc2c1Cc1c(O)cccc1-2 | 0% | 78.5% | 0% | 3470 nM | 6320 nM | 800 nM | 2330 nM
Oc1cccc(-c2cc(-c3ccccc3)nc3c2Cc2cc(O)ccc2-3)c1 | 20% | 96.8% | 0% | 1480 nM | 5640 nM | 600 nM | 2660 nM
Oc1ccccc1-c1cc(-c2ccc(C(F)(F)F)cc2)nc2c1Cc1cccc(O)c1-2 | 13.6% | 92.2% | 0.9% | 3490 nM | 5240 nM | 4500 nM | 4200 nM
Oc1ccc2c(c1)Cc1c(-c3ccccc3O)cc(-c3cccc(Cl)c3)nc1-2 | 14.6% | 80.8% | 2.6% | 2760 nM | 2690 nM | 360 nM | 2770 nM
Oc1ccccc1-c1cc(-c2cccc(Cl)c2)nc2c1Cc1c(O)cccc1-2 | 0% | 83.5% | 6.9% | 7470 nM | > 50000 nM | 560 nM | 640 nM
